Results taken from US11793849B2, “Method of Chinese herbal medicine extract used for treating multiple diseases caused by drug resistant bacteria infection” (priority 2016, dated 2023).
Where two headings read alike, the source gives them in different places.

Assays:
[1] = tested on: ATCC27853; test: MIC determination, control strain; assay type: cell-based
[2] = tested on: MDRPA; test: MIC determination, microdilution broth method;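 note: broth microdilution per NCCLS recommendations, testing Pithecellobium clypearia water or ethanol extracts against multidrug-resistant Pseudomonas aeruginosa, with MIC50 and MIC90 derived statistically from individual MICs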
[3] = EA=P. clypearia 10% ethanol extract, read-out: MIC (single use)
[4] = EA=P. clypearia water extract, read-out: MIC (single use)
[5] = single use, EA = 60% ethanol extract, read-out: MIC
[6] = single use, EA = 95% ethanol extract, read-out: MIC
[7] = 20 MDRPAs, EA = 60% ethanol extract
[8] = 20 MDRPAs, EA = 95% ethanol extract
[9] = MDRPAs P1-P20, single use, EA=P. clypearia 10% ethanol extract
[10] = MDRPAs P1-P20, single use, EA=P. clypearia water extract
[11] = Pseudomonas aeruginosa, read-out: MIC (single use), strain P1, EA=P. clypearia 10% ethanol extract
[12] = Pseudomonas aeruginosa, read-out: MIC (single use), strain P1, EA=P. clypearia water extract
[13] = Pseudomonas aeruginosa, read-out: MIC (single use), strain P2, EA=P. clypearia 10% ethanol extract
[14] = Pseudomonas aeruginosa, read-out: MIC (single use), strain P2, EA=P. clypearia water extract
[15] = Pseudomonas aeruginosa, read-out: MIC (single use), strain P3, EA=P. clypearia 10% ethanol extract
[16] = Pseudomonas aeruginosa, read-out: MIC (single use), strain P3, EA=P. clypearia water extract
[17] = Pseudomonas aeruginosa, read-out: MIC (single use), strain P4, EA=P. clypearia 10% ethanol extract
[18] = Pseudomonas aeruginosa, read-out: MIC (single use), strain P4, EA=P. clypearia water extract
[19] = Pseudomonas aeruginosa, read-out: MIC (single use), strain P5, EA=P. clypearia 10% ethanol extract
[20] = Pseudomonas aeruginosa, read-out: MIC (single use), strain P5, EA=P. clypearia water extract
[21] = Pseudomonas aeruginosa, read-out: MIC (single use), strain P6, EA=P. clypearia 10% ethanol extract
[22] = Pseudomonas aeruginosa, read-out: MIC (single use), strain P6, EA=P. clypearia water extract
[23] = Pseudomonas aeruginosa, read-out: MIC (single use), strain P7, EA=P. clypearia 10% ethanol extract
[24] = Pseudomonas aeruginosa, read-out: MIC (single use), strain P7, EA=P. clypearia water extract
[25] = Pseudomonas aeruginosa, read-out: MIC (single use), strain P8, EA=P. clypearia 10% ethanol extract
[26] = Pseudomonas aeruginosa, read-out: MIC (single use), strain P8, EA=P. clypearia water extract
[27] = Pseudomonas aeruginosa, read-out: MIC (single use), strain P9, EA=P. clypearia 10% ethanol extract
[28] = Pseudomonas aeruginosa, read-out: MIC (single use), strain P9, EA=P. clypearia water extract
[29] = Pseudomonas aeruginosa, read-out: MIC (single use), strain P10, EA=P. clypearia 10% ethanol extract
[30] = Pseudomonas aeruginosa, read-out: MIC (single use), strain P10, EA=P. clypearia water extract
[31] = Pseudomonas aeruginosa, read-out: MIC (single use), strain P11, EA=P. clypearia 10% ethanol extract
[32] = Pseudomonas aeruginosa, read-out: MIC (single use), strain P11, EA=P. clypearia water extract
[33] = Pseudomonas aeruginosa, read-out: MIC (single use), strain P12, EA=P. clypearia 10% ethanol extract
[34] = Pseudomonas aeruginosa, read-out: MIC (single use), strain P12, EA=P. clypearia water extract
[35] = Pseudomonas aeruginosa, read-out: MIC (single use), strain P13, EA=P. clypearia 10% ethanol extract
[36] = Pseudomonas aeruginosa, read-out: MIC (single use), strain P13, EA=P. clypearia water extract
[37] = Pseudomonas aeruginosa, read-out: MIC (single use), strain P14, EA=P. clypearia 10% ethanol extract
[38] = Pseudomonas aeruginosa, read-out: MIC (single use), strain P14, EA=P. clypearia water extract
[39] = Pseudomonas aeruginosa, read-out: MIC (single use), strain P15, EA=P. clypearia 10% ethanol extract
[40] = Pseudomonas aeruginosa, read-out: MIC (single use), strain P15, EA=P. clypearia water extract
[41] = Pseudomonas aeruginosa, read-out: MIC (single use), strain P16, EA=P. clypearia 10% ethanol extract
[42] = Pseudomonas aeruginosa, read-out: MIC (single use), strain P16, EA=P. clypearia water extract
[43] = Pseudomonas aeruginosa, read-out: MIC (single use), strain P17, EA=P. clypearia 10% ethanol extract
[44] = Pseudomonas aeruginosa, read-out: MIC (single use), strain P17, EA=P. clypearia water extract
[45] = Pseudomonas aeruginosa, read-out: MIC (single use), strain P18, EA=P. clypearia 10% ethanol extract
[46] = Pseudomonas aeruginosa, read-out: MIC (single use), strain P18, EA=P. clypearia water extract
[47] = Pseudomonas aeruginosa, read-out: MIC (single use), strain P19, EA=P. clypearia 10% ethanol extract
[48] = Pseudomonas aeruginosa, read-out: MIC (single use), strain P19, EA=P. clypearia water extract
[49] = Pseudomonas aeruginosa, read-out: MIC (single use), strain P20, EA=P. clypearia 10% ethanol extract
[50] = Pseudomonas aeruginosa, read-out: MIC (single use), strain P20, EA=P. clypearia water extract
[51] = single use, 20 MDRPAs, section of the 10% ethanol extract
[52] = single use, 20 MDRPAs, section of the 60% ethanol extract
[53] = single use, 20 MDRPAs, section of the 95% ethanol extract

NCC[C@H](O)C(=O)N[C@@H]1C[C@H](N)[C@@H](O[C@H]2O[C@H](CN)[C@@H](O)[C@H](O)[C@H]2O)[C@H](O)[C@H]1O[C@H]1O[C@H](CO)[C@@H](O)[C@H](N)[C@H]1O [AMK, Amikacin]
16 µg/mL: MIC [2, 45] | MIC [2, 46]
32 µg/mL: MIC90 [2, 7] | MIC90 [2, 8] | MIC90 [2, 9] | MIC90 [2, 10] | MIC90 ([2]; Pseudomonas aeruginosa) | MIC [2, 33] | MIC [2, 34] | MIC90 [2, 51] | MIC90 [2, 52] | MIC90 [2, 53]
1 µg/mL: MIC50 [2, 7] | MIC50 [2, 8] | MIC50 [2, 9] | MIC50 [2, 10] | MIC50 ([2]; Pseudomonas aeruginosa) | MIC [2, 11] | MIC [2, 12] | MIC [2, 13] | MIC [2, 14] | MIC [2, 17] | MIC [2, 18] | MIC [2, 23] | MIC [2, 24] | MIC [2, 25] | MIC [2, 26] | MIC [2, 27] | MIC [2, 28] | MIC [2, 31] | MIC [2, 32] | MIC [2, 43] | MIC [2, 44] | MIC [2, 47] | MIC [2, 48] | MIC50 [2, 51] | MIC50 [2, 52] | MIC50 [2, 53]
2 µg/mL: MIC [1, 3] | MIC [1, 4] | MIC [1, 5] | MIC [1, 6] | MIC [2, 19] | MIC [2, 20] | MIC [2, 35] | MIC [2, 36] | MIC [2, 37] | MIC [2, 38] | MIC [2, 39] | MIC [2, 40] | MIC [2, 49] | MIC [2, 50]
4 µg/mL: MIC [2, 15] | MIC [2, 16] | MIC [2, 29] | MIC [2, 30]
256 µg/mL: MIC [2, 21] | MIC [2, 22] | MIC [2, 41] | MIC [2, 42]
1 to 256 µg/mL: MIC Range [2, 7] | MIC Range [2, 8] | MIC Range [2, 9] | MIC Range [2, 10]

CCN1CCN(C(=O)N[C@@H](C(=O)N[C@@H]2C(=O)N3C(C(=O)O)=C(CSc4nnnn4C)CS[C@H]23)c2ccc(O)cc2)C(=O)C1=O [CFP, Cefoperazone]
128 µg/mL: MIC [2, 11] | MIC [2, 12]
512 µg/mL: MIC90 [2, 7] | MIC90 [2, 8] | MIC90 [2, 9] | MIC90 [2, 10] | MIC90 ([2]; Pseudomonas aeruginosa) | MIC [2, 19] | MIC [2, 20] | MIC [2, 21] | MIC [2, 22] | MIC [2, 23] | MIC [2, 24] | MIC [2, 33] | MIC [2, 34] | MIC90 [2, 51] | MIC90 [2, 52] | MIC90 [2, 53]
8 to 512 µg/mL: MIC Range [2, 7] | MIC Range [2, 8] | MIC Range [2, 9] | MIC Range [2, 10]
64 µg/mL: MIC50 [2, 7] | MIC50 [2, 8] | MIC50 [2, 9] | MIC50 [2, 10] | MIC50 ([2]; Pseudomonas aeruginosa) | MIC [2, 27] | MIC [2, 28] | MIC [2, 39] | MIC [2, 40] | MIC [2, 47] | MIC [2, 48] | MIC50 [2, 51] | MIC50 [2, 52] | MIC50 [2, 53]
> 512 µg/mL: MIC [2, 41] | MIC [2, 42] | MIC [2, 49] | MIC [2, 50]
256 µg/mL: MIC [2, 13] | MIC [2, 14] | MIC [2, 35] | MIC [2, 36] | MIC [2, 45] | MIC [2, 46]
8 µg/mL: MIC [1, 3] | MIC [1, 4] | MIC [1, 5] | MIC [1, 6] | MIC [2, 17] | MIC [2, 18] | MIC [2, 29] | MIC [2, 30] | MIC [2, 31] | MIC [2, 32] | MIC [2, 37] | MIC [2, 38]
16 µg/mL: MIC [2, 15] | MIC [2, 16] | MIC [2, 25] | MIC [2, 26] | MIC [2, 43] | MIC [2, 44]
1024 µg/mL: MIC (single use) ([2]; strain P16, EA=P. clypearia 10% ethanol extract) | MIC (single use) ([2]; strain P16, EA=P. clypearia water extract) | MIC (single use) ([2]; strain P20, EA=P. clypearia 10% ethanol extract) | MIC (single use) ([2]; strain P20, EA=P. clypearia water extract)
